From PubChem BioAssay AID1918940 (Molecular Pharmacology Branch, DTP, NCI, 2023)

Test system: NCI-H211 complex spheroid viability
Assay: Anticancer human tumor NCI-H211 cell line growth inhibition [LSD1];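 also: luminescent viability read after seven days of drug exposure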;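 as to viability, T/C: 100% = DMSO vehicle control viability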
Settings: for IC50: curve of first compound; for viability, T/C: stronger effect = lower value
Procedure, shortened: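 Multicellular complex spheroids of tumor cells with human endothelial cells (HUVEC) and mesenchymal stem cells; the LSD1 inhibitor iadademstat was combined with standard-of-care or investigational agents. Top concentration at or near clinical Cmax, half-log dilutions; final DMSO ≤0.25%.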

[1] = second compound 0.1 µM, first compound 0.00316 µM
[2] = second compound 0.1 µM, first compound 0.01 µM
[3] = second compound 0.1 µM, first compound 0.0316 µM
[4] = second compound 0.1 µM, first compound 0.1 µM
[5] = second compound 0.1 µM, first compound 0.316 µM
[6] = second compound 0.1 µM, first compound 1 µM
[7] = second compound 0.316 µM, first compound 0.00316 µM
[8] = second compound 0.316 µM, first compound 0.01 µM
[9] = second compound 0.316 µM, first compound 0.0316 µM
[10] = second compound 0.316 µM, first compound 0.1 µM
[11] = second compound 0.316 µM, first compound 0.316 µM
[12] = second compound 0.316 µM, first compound 1 µM
[13] = second compound 1 µM, first compound 0.00316 µM
[14] = second compound 1 µM, first compound 0.01 µM
[15] = second compound 1 µM, first compound 0.0316 µM
[16] = second compound 1 µM, first compound 0.1 µM
[17] = second compound 1 µM, first compound 0.316 µM
[18] = second compound 1 µM, first compound 1 µM
[19] = second compound 3.16 µM, first compound 0.00316 µM
[20] = second compound 3.16 µM, first compound 0.01 µM
[21] = second compound 3.16 µM, first compound 0.0316 µM
[22] = second compound 3.16 µM, first compound 0.1 µM
[23] = second compound 3.16 µM, first compound 0.316 µM
[24] = second compound 3.16 µM, first compound 1 µM
[25] = second compound 10 µM, first compound 0.00316 µM
[26] = second compound 10 µM, first compound 0.01 µM
[27] = second compound 10 µM, first compound 0.0316 µM
[28] = second compound 10 µM, first compound 0.1 µM
[29] = second compound 10 µM, first compound 0.316 µM
[30] = second compound 10 µM, first compound 1 µM

SMILES: CC1COCCN1c1cc(-c2ccnn2C)c2ccnc(-c3ccn[nH]3)c2n1 (stereo not given) + NC1CCC(NC2CC2c2ccccc2)CC1
- IC50 (second compound 0.1 µM): < 3.16 nM
- IC50 (second compound 0.316 µM): 3.54 nM
- IC50 (second compound 1 µM): 3.26 nM
- IC50 (second compound 3.16 µM): < 3.16 nM
- IC50 (second compound 10 µM): < 3.16 nM
- viability, T/C [1]: 47%
- viability, T/C [2]: 15.9%
- viability, T/C [3]: 3.03%
- viability, T/C [4]: 1.88%
- viability, T/C [5]: 1.99%
- viability, T/C [6]: 1.97%
- viability, T/C [7]: 54.4%
- viability, T/C [8]: 12.7%
- viability, T/C [9]: 5.04%
- viability, T/C [10]: 2.3%
- viability, T/C [11]: 1.83%
- viability, T/C [12]: 2.11%
- viability, T/C [13]: 51.1%
- viability, T/C [14]: 14.4%
- viability, T/C [15]: 3.22%
- viability, T/C [16]: 2.14%
- viability, T/C [17]: 1.98%
- viability, T/C [18]: 2.52%
- viability, T/C [19]: 39.7%
- viability, T/C [20]: 13.1%
- viability, T/C [21]: 2.82%
- viability, T/C [22]: 2.03%
- viability, T/C [23]: 1.63%
- viability, T/C [24]: 2.4%
- viability, T/C [25]: 18.2%
- viability, T/C [26]: 3.8%
- viability, T/C [27]: 1.39%
- viability, T/C [28]: 1%
- viability, T/C [29]: 0.87%
- viability, T/C [30]: 1.21%

SMILES: O=C(C=Cc1cccc(S(=O)(=O)Nc2ccccc2)c1)NO + NC1CC1c1ccc(-c2cccc(O)c2)cc1
- IC50 (second compound 0.1 µM): < 9.49 nM
- IC50 (second compound 0.316 µM): < 9.49 nM
- IC50 (second compound 1 µM): < 9.49 nM
- IC50 (second compound 3.16 µM): < 9.49 nM
- IC50 (second compound 10 µM): < 9.49 nM
- viability, T/C (second compound 0.1 µM, first compound 0.00949 µM): 14.7%
- viability, T/C (second compound 0.1 µM, first compound 0.03 µM): 8.14%
- viability, T/C (second compound 0.1 µM, first compound 0.0949 µM): 7.87%
- viability, T/C (second compound 0.1 µM, first compound 0.3 µM): 3.8%
- viability, T/C (second compound 0.1 µM, first compound 0.949 µM): 0.63%
- viability, T/C (second compound 0.1 µM, first compound 3 µM): 0.14%
- viability, T/C (second compound 0.316 µM, first compound 0.00949 µM): 13.9%
- viability, T/C (second compound 0.316 µM, first compound 0.03 µM): 7.23%
- viability, T/C (second compound 0.316 µM, first compound 0.0949 µM): 7.38%
- viability, T/C (second compound 0.316 µM, first compound 0.3 µM): 4.67%
- viability, T/C (second compound 0.316 µM, first compound 0.949 µM): 0.66%
- viability, T/C (second compound 0.316 µM, first compound 3 µM): 0.16%
- viability, T/C (second compound 1 µM, first compound 0.00949 µM): 13.9%
- viability, T/C (second compound 1 µM, first compound 0.03 µM): 8.11%
- viability, T/C (second compound 1 µM, first compound 0.0949 µM): 9.23%
- viability, T/C (second compound 1 µM, first compound 0.3 µM): 4.38%
- viability, T/C (second compound 1 µM, first compound 0.949 µM): 0.39%
- viability, T/C (second compound 1 µM, first compound 3 µM): 0.17%
- viability, T/C (second compound 3.16 µM, first compound 0.00949 µM): 15.4%
- viability, T/C (second compound 3.16 µM, first compound 0.03 µM): 7.28%
- viability, T/C (second compound 3.16 µM, first compound 0.0949 µM): 7.21%
- viability, T/C (second compound 3.16 µM, first compound 0.3 µM): 4.21%
- viability, T/C (second compound 3.16 µM, first compound 0.949 µM): 0.29%
- viability, T/C (second compound 3.16 µM, first compound 3 µM): 0.16%
- viability, T/C (second compound 10 µM, first compound 0.00949 µM): 13.5%
- viability, T/C (second compound 10 µM, first compound 0.03 µM): 6.43%
- viability, T/C (second compound 10 µM, first compound 0.0949 µM): 7.11%
- viability, T/C (second compound 10 µM, first compound 0.3 µM): 3.82%
- viability, T/C (second compound 10 µM, first compound 0.949 µM): 0.24%
- viability, T/C (second compound 10 µM, first compound 3 µM): 0.27%

SMILES: Nc1ncn(C2CC(O)C(CO)O2)c(=O)n1 (stereo not given) + NC1CC1c1ccc(-c2cccc(O)c2)cc1
- IC50 (second compound 0.1 µM): < 3.16 nM
- IC50 (second compound 0.316 µM): < 3.16 nM
- IC50 (second compound 1 µM): < 3.16 nM
- IC50 (second compound 3.16 µM): < 3.16 nM
- IC50 (second compound 10 µM): < 3.16 nM
- viability, T/C [1]: 23.1%
- viability, T/C [2]: 11.9%
- viability, T/C [3]: 5.65%
- viability, T/C [4]: 3.94%
- viability, T/C [5]: 3.2%
- viability, T/C [6]: 4.03%
- viability, T/C [7]: 18.7%
- viability, T/C [8]: 9.82%
- viability, T/C [9]: 6.26%
- viability, T/C [10]: 4.33%
- viability, T/C [11]: 3.7%
- viability, T/C [12]: 4.51%
- viability, T/C [13]: 17.9%
- viability, T/C [14]: 10.6%
- viability, T/C [15]: 5.51%
- viability, T/C [16]: 4%
- viability, T/C [17]: 4.16%
- viability, T/C [18]: 4.12%
- viability, T/C [19]: 24.6%
- viability, T/C [20]: 13.7%
- viability, T/C [21]: 6.51%
- viability, T/C [22]: 4.45%
- viability, T/C [23]: 3.03%
- viability, T/C [24]: 4.93%
- viability, T/C [25]: 22.7%
- viability, T/C [26]: 17.1%
- viability, T/C [27]: 9.21%
- viability, T/C [28]: 5.28%
- viability, T/C [29]: 3.35%
- viability, T/C [30]: 3.79%

SMILES: CC(C)c1c(-c2ccccc2)nc2c(C#N)c[nH]n2c1=O + NC1CCC(NC2CC2c2ccccc2)CC1
- IC50 (second compound 0.1 µM): > 10000 nM
- IC50 (second compound 0.316 µM): > 10000 nM
- IC50 (second compound 1 µM): > 10000 nM
- IC50 (second compound 3.16 µM): > 10000 nM
- IC50 (second compound 10 µM): < 31.6 nM
- viability, T/C [3]: 74.2%
- viability, T/C [4]: 74.7%
- viability, T/C [5]: 72%
- viability, T/C [6]: 81.5%
- viability, T/C (second compound 0.1 µM, first compound 3.16 µM): 65.8%
- viability, T/C (second compound 0.1 µM, first compound 10 µM): 85.8%
- viability, T/C [9]: 84.8%
- viability, T/C [10]: 81.7%
- viability, T/C [11]: 72.4%
- viability, T/C [12]: 72.8%
- viability, T/C (second compound 0.316 µM, first compound 3.16 µM): 67.2%
- viability, T/C (second compound 0.316 µM, first compound 10 µM): 75.5%
- viability, T/C [15]: 69.9%
- viability, T/C [16]: 80.7%
- viability, T/C [17]: 77.3%
- viability, T/C [18]: 60.5%
- viability, T/C (second compound 1 µM, first compound 3.16 µM): 62.3%
- viability, T/C (second compound 1 µM, first compound 10 µM): 70%
- viability, T/C [21]: 46.6%
- viability, T/C [22]: 56%
- viability, T/C [23]: 61.6%
- viability, T/C [24]: 65.5%
- viability, T/C (second compound 3.16 µM, first compound 3.16 µM): 62%
- viability, T/C (second compound 3.16 µM, first compound 10 µM): 60.5%
- viability, T/C [27]: 35.2%
- viability, T/C [28]: 37.4%
- viability, T/C [29]: 32.7%
- viability, T/C [30]: 34.9%
- viability, T/C (second compound 10 µM, first compound 3.16 µM): 32.2%
- viability, T/C (second compound 10 µM, first compound 10 µM): 32.8%
